Measurements reported in patent publication US20200390755A1, “COMPOUND FOR TREATING NERVOUS SYSTEM DISEASES AND USE THEREOF” (SHAANXI MICOT TECHNOLOGY CO., LTD., priority 2018, published 2020).
Marks after values point to notes of the source that are not given here.

Experiments:
[1] = system: AKT signaling pathway; assay: Western blotting of p-AKT and t-AKT in primary cortical neuron cells; type: cell-based, mouse; details: 500 nM, 10 min at 37° C., Vehicle = 100, n = 3
Protocol: N171-82Q WT male mice were mated with female B6C3F1/J hybrid mice. B6C3F1/J mice 18 days after pregnancy were anesthetized with isoflurane and dissected to remove embryos, which were then placed in a 10 cm Petri dish containing Leibovitz's buffer. The head of the embryo was cut off, and the brain was peeled off to obtain the whole mouse brain, which was then placed in a new 10 cm Petri dish containing Leibovitz's buffer. The neurocortex of the brain was separated and placed in a 15 mL centrifuge tube containing 3 mL Leibovitz's buffer. The centrifuge tube was centrifuged at 1000 rpm for 1 minute, and the Leibovitz's buffer was gently removed from the centrifuge tube, and then 750 μL of 0.25% trypsin-EDTA and 75 μL of 0.1% DNase (2000 U/mL) were added to digest at 37° C. for 15 min. 750 μL of DMEM medium containing 5% FBS was added to stop the digestion. The cells were mixed well, and centrifuged at 1000 rpm for 5 minutes. Trypins/DNase mixture was removed, and 750 μL of Neurobasal medium (B-27, Glutamax, P/S) was added. The cells were mixed by gently pipetting with a pipette for 30 times. The cell suspension was filtered with a 40 µm filter and transferred to another new 50 mL centrifuge tube. 10 μL of the cell suspension was added to 90 μL of DMEM (diluted 10 times), and 10 μL of the liquid mixture was placed on a hemocytometer so that the suspension filled between the cover slip and the counting plate for counting. The cells in the four large grids of the plate were counted, wherein for the cells across the line, only the cells on the left and upper side lines were counted. The following formulas were used:
Number of cells/mL=total number of cells in the four large grids/4×10^4/mL
Total number of cells/mL=total number of cells in the four large grids/4×10^4/mL×dilution factor.
After counting, the cells were diluted with Neurobasal selection medium so that 1 mL of Neurobasal culture medium contained 0.5×10^6 cells.
200 μL of PDL solution previously heated in a 37° C. water bath was added to each well of a 6-well plate, and incubated at 37° C. overnight to allow PDL to evenly coat the well plate. The PDL solution was absorbed and the plate was washed twice with PBS. Before use, the PBS remaining on the plate was absorbed and the cover was opened to dry the plate in a super clean bench. 2 mL of cell suspension was added to each well (37° C., 5% CO2), and the cells were cultured until adherence. The culture medium was replaced and the culture continued for 3 days, and then the growth status of neurons was observed. Every other 3 days, half of the medium was removed and replaced with fresh complete medium. The culture continued until the primary cortical neuron cells mature (usually mature on the 14th day of culture).
After the primary cortical neuron cells have matured, appropriate amount of freshly prepared culture medium was added until final volume in each well was 2 mL. The experiment included a blank control group (Vehicle), a positive control group BDNF (10 ng/mL), a control compound group (500 nM), and 6 test compound groups (500 nM). Three repeats were set for each dose. After incubating at 37° C. for 10 min, the culture solution was discarded and the cells were washed with pre-chilled PBS, and then 40 μL of pre-chilled lysate (RIPA buffer 10 mL and protease and phosphatase inhibitor 100 μL) was added to each well for lysis on ice for 30 min. After lysis, the cell was crushed by ultrasonic cell crusher, centrifuged at 14000 rpm for 20 min at 4° C. The supernatant was transferred to a new 1.5 mL centrifuge tube to extract protein. Western blotting experiments were used to detect the protein levels of (A) p-TrkB and t-TrkB; (B) p-AKT and t-AKT.
The software Sigmaplot 13.0 was used for statistical analysis of the data, and the data of each group was expressed as mean±standard error (x±SEM). […]

[2] = system: N171-82Q HD mice; assay: In vivo MRI scan and brain volume measurement, HD mice; set-up: species or system mouse; details: 5 mg/kg/d, administered until 24 weeks, n = 4
Protocol: 7-week-old N171-82Q HD male mice were paired with female B6C3F1/J hybrid mice to obtain newborn mice. From 21 days of age, male mice were housed in separate cages. 0.5 cm of mouse tail tissue was removed to extract DNA to determine the genotype of the mouse, such that N171-82Q HD mice and WT mice needed for the experiment were obtained. The mice were randomly divided into WT Vehicle group (normal mice), WT test compound group (administration group of normal mice, 5 mg/kg/d, n=10), HD Vehicle group (blank group of HD mice, n=15), HD test compound group (administration groups 1-5 of HD mice, 5 mg/kg/d, n=10). The test compound was suspended in 1% CMC-Na solution and administered by intragastric administration until the end of the study. The weights of the mice were measured every week. Behavioral tests were performed at 12 weeks, 18 weeks, and 24 weeks of age to investigate motor function. At 20 weeks, 3 samples of tissue from each group were used for western blotting and immunohistochemistry. At 24 weeks, MRI scans were performed. At the end of the study, the effect of the test compound on the mortality of mice was evaluated.
The WT Vehicle group, WT test compound group, HD Vehicle group and HD test compound group were administered until 24 weeks, and 4 mice in each group were taken for in vivo MRI scanning and brain volume measurement. A 9.4 T MRI scanner equipped with three-axis gradient and animal imaging probes was used. The mice were anesthetized with 1% isoflurane. The breath of mice was monitored, and constant temperature was maintained throughout the scan. Three-dimensional T2 weighted fast spin echo sequence technology was used to obtain images. The imaging resolution and contrast of this technology were sufficient to automatically describe the volume of the mouse brain and substructures. The parameters were as follows: echo time (TE)/repetition time (TR) ^1/440/700 ms, resolution ^1/40.1×0.1×0.1 mm, echo train length ^1/44, average number ^1/42 and flip angle ^1/4408. The instrument contained a powerful linux cluster that can encode and run large-scale deformation diffusion metric maps (LDDMM) to obtain high-intensity standardized images. These transformations encoded morphological differences between images and analyzed based on deformation morphological measurements (DBM) to detect regional changes in brain volume. The volume of the whole brain (Brain), […] was analyzed.
The MRI scanning technology was used to analyze the morphological differences between the experimental object and the template image, and the LDDMM method was used to calculate and analyze the brain tissue structure of the mouse. The statistical results of the brain volume, striatum volume, and neurocortex volume of the test compound Example 1 are shown in FIG. 3, in which FIG. 3A is the statistical results of the whole brain volume, and FIG. 3B is the statistical results of striatum volume, and FIG. 3C is the statistical results of neurocortex volume.

| Structure (SMILES) | Relative intensity of p-AKT/t-AKT protein [1] | MRI volume, Neurocortex [2] | MRI volume, Striatum [2] | MRI volume, Whole brain [2] |
| --- | --- | --- | --- | --- |
| O=c1cc(-c2ccc(N3CCCCC3)cc2)oc2c(O)c(O)ccc12 [Example 1, 7,8-dihydroxy-2-(4-(piperidin-1-yl)phenyl)-4H-chromen-4-one] | 219.663 ± 8.085 | 18.90 ± 0.341** mm^3 | 79.47 ± 1.079** mm^3 | 460.47 ± 2.145** mm^3 |
| COc1ccc2c(=O)cc(-c3ccc(N4CCCCC4)cc3)oc2c1OC [Example 2, 7,8-dimethoxy-2-(4-(piperidin-1-yl)phenyl)-4H-chromen-4-one] | 209.651 ± 3.294 | 18.68 ± 0.598** mm^3 | 79.10 ± 0.976** mm^3 | 449.97 ± 7.279** mm^3 |
| CN(C)C1CCN(c2ccc(-c3cc(=O)c4ccc(O)c(O)c4o3)cc2)CC1 [Example 3, 2-(4-(4-(dimethylamino)piperidin-1-yl)phenyl)-7,8-dihydroxy-4H-chromen-4-one] | 240.213 ± 8.376 | 19.05 ± 0.997** mm^3 | 80.34 ± 1.238** mm^3 | 465.33 ± 9.218** mm^3 |
| CC1(C)CCN(c2ccc(-c3cc(=O)c4ccc(O)c(O)c4o3)cc2)CC1 [Example 4, 2-(4-(4,4-dimethylpiperidin-1-yl)phenyl)-7,8-dihydroxy-4H-chromen-4-one] | 215.698 ± 5.487 | 18.59 ± 0.899** mm^3 | 79.03 ± 1.834** mm^3 | 461.31 ± 3.451** mm^3 |
| CC1CC(C)CN(c2ccc(-c3cc(=O)c4ccc(O)c(O)c4o3)cc2)C1 (centres unmarked) [Example 5, 2-(4-(3,5-dimethylpiperidin-1-yl)phenyl)-7,8-dihydroxy-4H-chromen-4-one] | 219.904 ± 6.954 | 19.01 ± 0.557** mm^3 | 79.43 ± 0.898** mm^3 | 462.19 ± 2.178** mm^3 |
